Reference: patent US8119633B2, “Substituted sulfonamide compounds” (Gruenenthal GmbH, priority 2007, dated 2012)

Target: T1, bradykinin receptor 1 (B1R) of the rat (Rattus norvegicus, UniProt P97583)
T1 construct: expressed in transfected cells; host or cells: CHO K1 cells
T1 sequence (P97583 1-337): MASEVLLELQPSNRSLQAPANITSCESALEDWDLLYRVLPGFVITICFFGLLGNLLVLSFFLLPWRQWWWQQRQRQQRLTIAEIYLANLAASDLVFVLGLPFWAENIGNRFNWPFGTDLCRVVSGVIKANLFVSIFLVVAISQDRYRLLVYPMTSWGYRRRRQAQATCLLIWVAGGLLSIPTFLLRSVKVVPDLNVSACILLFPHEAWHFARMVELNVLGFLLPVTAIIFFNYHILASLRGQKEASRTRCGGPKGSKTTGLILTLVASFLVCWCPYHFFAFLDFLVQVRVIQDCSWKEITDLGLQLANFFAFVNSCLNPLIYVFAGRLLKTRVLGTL
Test: Functional study on the bradykinin receptor 1 (B1R), rat: FLIPR Ca2+ influx assay
Assay type: cell-based
Conditions: test substance 10 μM; CHO K1 cells transfected with rat B1R; Des-Arg9-bradykinin at EC80; Ca2+ influx (Fluo-4, FLIPR); read-out: B1R antagonism, rat [10 μM] % inhibition
Text: (§1) The agonistic or antagonistic action of substances can be determined on the bradykinin receptor 1 (B1R) of the species human and rat using the following assay. According to this assay, the Ca^2+ influx through the channel is quantified with the aid of a Ca^2+-sensitive dye (Fluo-4 type, Molecular Probes Europe BV, Leiden, Netherlands) using a Fluorescent Imaging Plate Reader (FLIPR, Molecular Devices, Sunnyvale, USA).
(§2) Chinese hamster ovary cells (CHO K1 cells) which have been stably transfected with the human B1R gene (hB1R cells) or with the B1R gene of the rat (rB1R cells) are used. For functional studies, the cells are plated out on black 96-well plates having a clear base (BD Biosciences, Heidelberg, Germany or Greiner, Frickenhausen, Germany) in a density of 20,000-35,000 cells/well. The cells are incubated overnight at 37° C. and with 5% CO2 in culture medium (hB1R cells: Nutrient Mixture Ham's F12, Gibco Invitrogen GmbH, Karlsruhe, Germany or DMEM, Sigma-Aldrich, Taufkirchen, Germany; rB1R cells: D-MEM/F12, Gibco Invitrogen GmbH, Karlsruhe, Germany), with 10 vol. % FBS (fetal bovine serum, Gibco Invitrogen GmbH, Karlsruhe, Germany or PAN Biotech GmbH, Aidenbach, Germany).
(§3) On the following day, the cells are loaded for 60 minutes at 37° C. with 2.13 μM Fluo-4 (Molecular Probes Europe BV, Leiden, Netherlands) in HBSS buffer (Hank's buffered saline solution, Gibco Invitrogen GmbH, Karlsruhe, Germany) with 2.5 mM probenecid (Sigma-Aldrich, Taufkirchen, Germany) and 10 mM HEPES (Sigma-Aldrich, Taufkirchen, Germany). The plates are then washed twice with HBSS buffer, and HBSS buffer additionally containing 0.1% BSA (bovine serum albumin; Sigma-Aldrich, Taufkirchen, Germany), 5.6 mM glucose and 0.05% gelatin (Merck KGaA, Darmstadt, Germany) is added to the plates. After incubation for a further 20 minutes at room temperature, the plates are inserted into the FLIPR for Ca^2+ measurement. Alternatively, washing is carried out with buffer A (15 mM HEPES, 80 mM NaCl, 5 mM KCl, 1.2 mM CaCl2, 0.7 mM MgSO4, 2 g/l glucose, 2.5 mM probenecid) followed by loading with buffer A with added 2.5 μM Fluo-4 and 0.025% Pluronic F127 (Sigma-Aldrich, Taufkirchen, Germany). The cells are then washed twice with buffer A and incubated for 30 minutes at room temperature with buffer A additionally containing 0.05% BSA and 0.05% gelatin and are then inserted into the FLIPR for Ca^2+ measurement.
(§4) The Ca^2+-dependent fluorescence is measured before and after the addition of substances (λex=488 nm, λem=540 nm). Quantification is carried out by measuring the highest fluorescence intensity (FC, fluorescence counts) over time.
(§5) The FLIPR protocol consists of two substance additions. Test substances (10 μM) are first pipetted onto the cells and the Ca^2+ influx is compared with the control (hB1R: Lys-Des-Arg^9-bradykinin>=0.5 nM; rB1R: Des-Arg^9-bradykinin 10 μM). This gives the activation in %, based on the Ca^2+ signal after addition of Lys-Des-Arg^9-bradykinin (>=0.5 nM) or Des-Arg^9-bradykinin (10 μM).
(§6) After 10-20 minutes' incubation, Lys-Des-Arg^9-bradykinin (hB1R) or Des-Arg^9-bradykinin (rB1R) is applied in the concentration of the EC80, and the influx of Ca^2+ is likewise determined.
(§7) Antagonists lead to suppression of the Ca^2+ influx. The % inhibition compared with the maximum achievable inhibition is calculated.
(§8) In order to determine the IC50 value, the substances are added in various concentrations. Duplicate or triplicate determinations (n=2 or n=3) are carried out, and these are repeated in at least one further independent experiment (N>=2).

Row | SMILES | inhibition at 10 µM [%]
1 | CN(C)C(c1ccc(Cl)cc1)C1CCC(CNC(=O)c2ccccc2N(C)S(=O)(=O)c2ccc(Cl)c(Cl)c2)CC1 (stereo not shown) [Example 41, N-{4-[(4-chloro-phenyl)-dimethylamino-methyl]-cyclohexylmethyl}-2-[(3,4-dichloro-benzenesulfonyl)-methyl-amino]-benzamide] | 25
2 | COc1ccc(S(=O)(=O)N2CCc3ccccc3C2CC(=O)NCC2CCC(C(CCc3ccccc3)N(C)C)CC2)cc1 (stereo not shown) [Example 18, N-[4-(1-dimethylamino-3-phenyl-propyl)-cyclohexylmethyl]-2-[2-(4-methoxybenzenesulfonyl)-1,2,3,4-tetrahydro-isoquinolin-1-yl]-acetamide] | 73
3 | CN(C)C(c1cccc(F)c1)C1CCC(CCNC(=O)c2c(N(C)S(=O)(=O)c3ccc(Cl)c(Cl)c3)sc3c2CCCC3)CC1 (stereo not shown) [Example 51, 2-(3,4-dichloro-N-methylphenylsulfonamido)-N-(2-(4-((dimethylamino)(3-fluorophenyl)methyl)cyclohexyl)ethyl)-4,5,6,7-tetrahydrobenzo[b]thiophene-3-carboxamide] | 1
4 | CN(C)C(c1ccc(Cl)cc1)C1CCC(CCNC(=O)c2c(N(C)S(=O)(=O)c3ccc(Cl)c(Cl)c3)sc3c2CCCC3)CC1 (stereo not shown) [Example 50, N-(2-(4-((4-chlorophenyl)(dimethylamino)methyl)cyclohexyl)ethyl)-2-(3,4-dichloro-N-methylphenylsulfonamido)-4,5,6,7-tetrahydrobenzo[b]thiophene-3-carboxamide] | 11
5 | CN(C)C(c1ccccc1)C1CCC(CNC(=O)c2ccccc2N(C)S(=O)(=O)c2ccc(Cl)c(Cl)c2)CC1 (stereo not shown) [Example 38, 2-[(3,4-dichloro-benzenesulfonyl)-methyl-amino]-N-[4-(dimethylamino-phenylmethyl)-cyclohexylmethyl]-benzamide] | 15
6 | CN(C)C(c1ccccc1)C1CCC(CNC(=O)c2c(N(C)S(=O)(=O)c3ccc(Cl)c(Cl)c3)sc3c2CCCC3)CC1 (stereo not shown) [Example 46, 2-[(3,4-dichloro-benzenesulfonyl)-methyl-amino]-4,5,6,7-tetrahydrobenzo[b]thiophene-3-carboxylic acid [4-(dimethylamino-phenyl-methyl)cyclohexylmethyl]-amide] | -9
7 | CN(C)C(c1ccc(F)cc1)C1CCC(CCNC(=O)c2c(N(C)S(=O)(=O)c3ccc(Cl)c(Cl)c3)sc3c2CCCC3)CC1 (stereo not shown) [Example 52, 2-(3,4-dichloro-N-methylphenylsulfonamido)-N-(2-(4-((dimethylamino)(4-fluorophenyl)methyl)cyclohexyl)ethyl)-4,5,6,7-tetrahydrobenzo[b]thiophene-3-carboxamide] | -22
8 | COc1ccc(S(=O)(=O)N(C)C2(C(=O)NCCC3CCC(C(c4ccccc4)N(C)C)CC3)CCCCC2)cc1 (stereo not shown) [Example 100, N-(2-(4-((dimethylamino)(phenyl)methyl)cyclohexyl)ethyl)-1-(4-methoxy-N-methylphenylsulfonamido)cyclohexanecarboxamide] | -2
9 | CN(C)C(c1cccs1)C1CCC(CNC(=O)c2ccccc2N(C)S(=O)(=O)c2ccc(Cl)c(Cl)c2)CC1 (stereo not shown) [Example 42, 2-[(3,4-dichloro-benzenesulfonyl)-methyl-amino]-N-[4-(dimethylamino-thiophen-2-yl-methyl)-cyclohexylmethyl]-benzamide] | 3
10 | CN(C)C(c1ccc(F)cc1)C1CCC(CNC(=O)c2c(N(C)S(=O)(=O)c3ccc(Cl)c(Cl)c3)sc3c2CCCC3)CC1 (stereo not shown) [Example 47, 2-[(3,4-dichloro-benzenesulfonyl)-methyl-amino]-4,5,6,7-tetrahydrobenzo[b]thiophene-3-carboxylic acid {4-[dimethylamino-(4-fluoro-phenyl)methyl]-cyclohexylmethyl}-amide] | 12
11 | CN(C)C(c1cccs1)C1CCC(CNC(=O)c2c(N(C)S(=O)(=O)c3ccc(Cl)c(Cl)c3)sc3c2CCCC3)CC1 (stereo not shown) [Example 49, 2-[(3,4-dichloro-benzenesulfonyl)-methyl-amino]-4,5,6,7-tetrahydrobenzo[b]thiophene-3-carboxylic acid [4-(dimethylamino-thiophen-2-yl-methyl)cyclohexylmethyl]-amide] | 19
12 | CN(C)C(c1ccc(F)cc1)C1CCC(NC(=O)C2Cc3ccccc3N2S(=O)(=O)c2ccc(Cl)c(Cl)c2)CC1 (stereo not shown) [Example 94, 1-(3,4-dichlorophenylsulfonyl)-N-(4-((dimethylamino)(4-fluorophenyl)methyl)cyclohexyl)indoline-2-carboxamide] | -19
13 | CN(C)C(c1ccc(Cl)cc1)C1CCC(CNC(=O)c2c(N(C)S(=O)(=O)c3ccc(Cl)c(Cl)c3)sc3c2CCCC3)CC1 (stereo not shown) [Example 48, 2-[(3,4-dichloro-benzenesulfonyl)-methyl-amino]-4,5,6,7-tetrahydrobenzo[b]thiophene-3-carboxylic acid {4-[(4-chloro-phenyl)-dimethylamino-methyl]-cyclohexylmethyl}-amide] | 19
14 | CN(C)C(c1cccs1)C1CCC(CCNC(=O)c2c(N(C)S(=O)(=O)c3ccc(Cl)c(Cl)c3)sc3c2CCCC3)CC1 (stereo not shown) [Example 53, 2-(3,4-dichloro-N-methylphenylsulfonamido)-N-(2-(4-((dimethylamino)(thiophen-2-yl)methyl)cyclohexyl)ethyl)-4,5,6,7-tetrahydrobenzo[b]thiophene-3-carboxamide] | 12
15 | CN(C)C(CCc1ccccc1)C1CCC(CNC(=O)C2Cc3ccccc3N2S(=O)(=O)c2ccc(Cl)c(Cl)c2)CC1 (stereo not shown) [Example 96, 1-(3,4-dichlorophenylsulfonyl)-N-((4-(1-(dimethylamino)-3-phenylpropyl)cyclohexyl)methyl)indoline-2-carboxamide] | 12
16 | CN(C)C(c1ccccc1)C1CCC(NC(=O)c2c(N(C)S(=O)(=O)c3ccc(Cl)c(Cl)c3)sc3c2CCCC3)CC1 (stereo not shown) [Example 12, 2-[(3,4-dichloro-benzenesulfonyl)-methyl-amino]-4,5,6,7-tetrahydrobenzo[b]thiophene-3-carboxylic acid [4-(dimethylamino-phenyl-methyl)cyclohexyl]-amide] | 0

Target: T2, human bradykinin receptor 1 (B1R) (Homo sapiens, UniProt P46663)
T2 construct: expressed in transfected cells; host or cells: CHO K1 cells
T2 sequence (P46663 1-353): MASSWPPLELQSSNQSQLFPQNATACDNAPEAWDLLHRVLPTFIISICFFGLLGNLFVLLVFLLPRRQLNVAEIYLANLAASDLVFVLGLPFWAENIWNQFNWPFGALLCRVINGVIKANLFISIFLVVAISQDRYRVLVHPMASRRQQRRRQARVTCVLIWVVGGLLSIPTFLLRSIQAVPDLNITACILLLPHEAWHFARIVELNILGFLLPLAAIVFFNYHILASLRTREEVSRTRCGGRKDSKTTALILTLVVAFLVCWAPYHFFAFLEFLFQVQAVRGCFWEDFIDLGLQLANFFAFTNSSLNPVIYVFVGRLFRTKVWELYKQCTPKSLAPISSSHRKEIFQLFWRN
Test: Functional study on the bradykinin receptor 1 (B1R), human: FLIPR Ca2+ influx assay
Assay type: cell-based
Conditions: test substance 10 μM; CHO K1 cells transfected with human B1R; Lys-Des-Arg9-bradykinin at EC80; Ca2+ influx (Fluo-4, FLIPR); read-out: B1R antagonism, human [10 μM] % inhibition
Text: Functional Study on the Human Bradykinin Receptor 1 (B1R)
as §1, §2, §3, §4, §5, §6, §7, §8

Row | SMILES | inhibition at 10 µM [%]
17 | CN(C)C(c1ccc(Cl)cc1)C1CCC(CNC(=O)c2ccccc2N(C)S(=O)(=O)c2ccc(Cl)c(Cl)c2)CC1 (stereo not shown) [Example 41, N-{4-[(4-chloro-phenyl)-dimethylamino-methyl]-cyclohexylmethyl}-2-[(3,4-dichloro-benzenesulfonyl)-methyl-amino]-benzamide] | 22
18 | COc1ccc(S(=O)(=O)N2CCc3ccccc3C2CC(=O)NCC2CCC(C(CCc3ccccc3)N(C)C)CC2)cc1 (stereo not shown) [Example 18, N-[4-(1-dimethylamino-3-phenyl-propyl)-cyclohexylmethyl]-2-[2-(4-methoxybenzenesulfonyl)-1,2,3,4-tetrahydro-isoquinolin-1-yl]-acetamide] | 58.8
19 | CN(C)C(c1ccccc1)C1CCC(CNC(=O)c2ccccc2N(C)S(=O)(=O)c2ccc(Cl)c(Cl)c2)CC1 (stereo not shown) [Example 38, 2-[(3,4-dichloro-benzenesulfonyl)-methyl-amino]-N-[4-(dimethylamino-phenylmethyl)-cyclohexylmethyl]-benzamide] | 17.9
